Source: patent US20210246121A1, “SOLID FORMS OF APOL1 INHIBITOR AND METHODS OF USING SAME” (Vertex Pharmaceuticals Incorporated, priority 2020, published 2021)

Experiment: relative thermodynamic stability of solid forms of Compound I as a function of water activity
Format: physicochemical
Conditions: from about 0 to 0.5 or 0.6 water activity at room temperature

O=C(CCc1c(-c2ccc(F)cc2)[nH]c2ccccc12)N[C@@H]1C(=O)NC[C@H]1O [Compound 1 Form B]
thermodynamic stability relative to other forms of the compound: most thermodynamically stable form
